In patent US4837238A, “Pharmacologically useful pyrazolopyridines” (Beecham Group p.l.c., priority 1985, dated 1989):

Columns and labels:
Type in all cases: in vivo
cantharidin mouse ear = experiment: Mouse cantharidin screen (topical anti-inflammatory activity, mouse ear); settings: 500 μg/ear, 25 μg cantharidin, 24 h, ***P < 0.001
Description: Compounds were tested for topical anti-inflammatory activity in a cantharidin mouse ear screen, modified from Swingle, K. F., Reiter, M. J. and Schwartzmiller, D. H., Arch. Int. Pharmacodyn., (1981), 254, 168-176).
(a) 25 μg cantharidin (in 10 μl THF/MeOH) was applied to both ears. Compound, in the same solvent, was applied at the same time, to the left ear only. Ears were weighed 24 h after cantharidin application. Percentage inhibition of the acute inflammatory swelling refers to the increase in weight of left ears (cantharidine plus compound) compared with solvent-treated negative controls, as a proportion of the increase in weight of right ears (cantharidin alone) over similar controls.

[1] = system: Carrageenin-induced pleurisy in the rat; experiment: Carrageenin-induced pleurisy in the rat (monocyte accumulation); settings: 25 mg/kg p.o., 1 hour before and 24 and 48 hours after carrageenin, 72 hours; compared to control (p<0.05)
Description: This model of monocyte accumulation is based on the method of R. Vinegar, J. F. Truax, J. L. Selph and F. A. Voelker [Federation Proceedings 41, 2588-2595, 1982].
0.2 ml of a 2.0% solution of λ-carrageenin (Viscarin 402) in saline was injected intrapleurally in anaesthetised rats (wt. approx. 175-200 g). Compounds were administered 1 hour before carrageenin and at 24 and 48 hours after carrageenin. 72 hours after carrageenin injection, 4.0 ml of EDTA solution (5 g EDTA in 100 ml of 0.9% saline and 325 mg phenol red added together with saline to 1 liter) was injected intrapleurally after killing the animals, and the exudate was removed with a syringe through the diaphragm. Exudate volume was calculated from the dilution of the phenol red injected, determined spectrophotometrically (560 nm) and cellular content estimated with a DNA assay [Karsten U. and Wollenberger A. Anal. Biochem. 77, 464-470, 1977].

[2] = system: mouse sensitized to oxazolone; experiment: Mouse oxazolone screen (topical anti-inflammatory activity, sensitized mouse ear); settings: 200 μg/ear, 1 hour before 100 μg oxazolone challenge, 24 hours, **p < 0.01, ***p < 0.001
Description: Compounds were tested for topical anti-inflammatory activity in a screen using the mouse sensitized to oxazolone, by a method modified from that of Dietrich and Hess [Int. Arch. Allergy, 38, 246 (1970)].
Mice were sensitized with oxazolone (2 mg in 20 μl EtOH) on a shaved area of the abdomen. 5 days later, the animals received 10 μl THF/MeOH (1:1 v/v) on the right ear and the test compound in the same solvent on the left ear. 1 hour later, the animals were challenged with 100 μg oxazolone in 10 μl acetone on each ear. Ear weights were measured 24 hours later. Percentage inhibition of the inflammatory swelling refers to the increase in weight of left ears (oxazolone plus compound in THF/MeOH) compared to untreated negative controls, as a proportion of the increase in weight of right ears (oxazolone only in THF/MeOH) over similar controls.

| Structure (SMILES) | % INHIBITION (acute inflammatory swelling, ear weight) (cantharidin mouse ear) [%] | inhibition of DNA content (exudate cellular content) [1] [%] | inhibition of exudate volume [1] [%] | % INHIBITION (inflammatory swelling, ear weight) [2] [%] |
| --- | --- | --- | --- | --- |
| CCCCNc1c(C)cnc2cn[nH]c12 [Example 1, 7n-Butylamino-6-methyl-1H-pyrazolo[4,3-b]pyridine] | 95 |  |  |  |
| OCCNc1c2c(nc3cn[nH]c13)CCCC2 [Example 5, 9-(2-Hydroxyethylamino)-5,6,7,8-tetrahydro-1H-pyrazolo-[4,3-b]quinoline] | 91 | 31 | 36 |  |
| CC(C)CNc1c2c(nc3cn[nH]c13)CCCC2 [Example 6, 9-Isobutylamino-5,6,7,8-tetrahydro-1H-pyrazolo[4,3-b]quinoline] | 97 |  |  | 66 |
| CC(C)CNc1c2c(nc3cn[nH]c13)CCC2 [Example 8, 8-Isobutylamino-5,6,7-trihydro-1H-cyclopenta[b]pyrazolo[3,4-e]pyridine] | 97 |  |  | 49 |
| CCCNc1c(CN)cnc2cn[nH]c12 [Example 9, 6-Aminomethyl-7-propylamino-1H-pyrazolo[4,3-b]pyridine] | 91 |  |  |  |
